# Test results published in article PMC10770036, “Novel dual inhibitors of PARP and HDAC induce intratumoral STING-mediated antitumor immunity in triple-negative breast cancer” (Cell Death & Disease, 2024).
# Legend:
# recombinant HDAC1 = target: T1, recombinant HDAC1 (Homo sapiens, UniProt Q13547); test: HDAC1 inhibition assay (Ac-peptide-AMC fluorescence); type: biochemical
# T1 construct: purchased Active Motif
# Method: (§1) The in vitro HDAC inhibition assays were carried out by Sundia MediTech Co. Ltd. in Shanghai, China. […] Reactions were stopped with trypsin, and the samples were incubated for another 90 min at 37 °C. […] IC50 values were obtained using GraphPad Prism software.
# recombinant HDAC6 = target: T2, recombinant HDAC6 (Homo sapiens, UniProt Q9UBN7); test: HDAC6 inhibition assay (Ac-peptide-AMC fluorescence); type: biochemical
# T2 construct: purchased BPS Bioscience
# T2 sequence (Q9UBN7 1-1215): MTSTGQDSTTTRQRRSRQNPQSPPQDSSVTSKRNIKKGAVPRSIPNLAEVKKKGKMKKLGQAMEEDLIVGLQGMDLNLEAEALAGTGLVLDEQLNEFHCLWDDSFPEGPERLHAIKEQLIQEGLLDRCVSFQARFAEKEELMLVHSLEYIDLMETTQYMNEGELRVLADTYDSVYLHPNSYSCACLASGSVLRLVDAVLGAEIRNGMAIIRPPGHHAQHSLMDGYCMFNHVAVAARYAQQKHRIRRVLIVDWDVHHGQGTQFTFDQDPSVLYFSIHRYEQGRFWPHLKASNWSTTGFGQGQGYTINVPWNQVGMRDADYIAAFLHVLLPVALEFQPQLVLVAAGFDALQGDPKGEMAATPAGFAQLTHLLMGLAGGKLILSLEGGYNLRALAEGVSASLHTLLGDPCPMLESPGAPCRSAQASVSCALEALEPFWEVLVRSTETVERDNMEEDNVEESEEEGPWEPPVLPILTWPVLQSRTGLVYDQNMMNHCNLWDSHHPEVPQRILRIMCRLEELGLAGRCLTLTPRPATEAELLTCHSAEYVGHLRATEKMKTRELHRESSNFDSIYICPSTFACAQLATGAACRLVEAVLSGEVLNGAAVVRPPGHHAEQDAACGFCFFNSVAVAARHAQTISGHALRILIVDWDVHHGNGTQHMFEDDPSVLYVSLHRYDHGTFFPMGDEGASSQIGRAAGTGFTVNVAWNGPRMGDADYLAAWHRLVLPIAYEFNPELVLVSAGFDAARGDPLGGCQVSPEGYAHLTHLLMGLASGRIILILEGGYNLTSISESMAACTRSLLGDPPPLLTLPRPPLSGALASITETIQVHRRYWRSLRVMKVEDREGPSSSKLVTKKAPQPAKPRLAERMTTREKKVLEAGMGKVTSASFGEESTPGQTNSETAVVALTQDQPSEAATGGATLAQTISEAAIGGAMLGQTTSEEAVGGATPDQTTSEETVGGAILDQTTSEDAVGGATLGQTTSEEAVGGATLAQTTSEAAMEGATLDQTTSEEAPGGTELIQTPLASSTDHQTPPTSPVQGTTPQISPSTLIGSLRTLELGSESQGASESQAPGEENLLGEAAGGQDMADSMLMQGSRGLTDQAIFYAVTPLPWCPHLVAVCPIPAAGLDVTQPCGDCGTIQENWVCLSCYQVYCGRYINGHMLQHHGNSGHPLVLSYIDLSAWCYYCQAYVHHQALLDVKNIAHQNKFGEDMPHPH
# Method: as §1
# PARP1 = target: T3, PARP1 (Homo sapiens, UniProt P09874); test: PARP1 enzymatic inhibition assay (PARP1 Colorimetric Assay Kit); type: biochemical
# T3 construct: purchased BPS Bioscience 80580
# Method: (§2) Briefly, the 1× histone mixture was added to each well and incubated overnight at 4 °C. Each well was washed three times with 200 µL 1× TBST buffer and filled with 200 µL Blocking buffer at room temperature for 90 min. Then, each well was filled with 25 µL of PARP master mixture (5 μL activated DNA + 2.5 μL 10× PARP Assay mixture + 2.5 μL 10× PARP buffer + 15 μL distilled water). Next, 5 µL of the compound of different concentrations was added to each well, and PARP enzyme was added and incubated at room temperature for 1 h. Next, streptavidin HRP solution was added and incubated at room temperature for 30 min. After adding 100 µL of colorimetric HRP substrate to each well, the plate was incubated until a blue color developed in the positive well, which contained PARP enzyme without inhibitors. The reaction was then quenched with 2 M sulfuric acid, and absorbance at 450 nm was measured using a microplate reader (BioTek, Winooski, VT, USA). After calculating the inhibition rate, the IC50 value was determined.
# MDA-MB-436 cells = test: MTT cell viability assay, MDA-MB-436; settings: Homo sapiens, MDA-MB-436, 72 h, read-out: IC50 MDA-MB-436
# Method: (§3) The viability assay was measured by a 3-(4,5-dimethylthiazol-2-yl)−2,5-diphenyltetrazolium bromide (MTT) assay.
# (§4) In brief, cells were seeded at a density of 6,000 cells in 96-well plates and cultured overnight. […] After aspiration of the medium, the formazan crystals were dissolved in 100 μL of DMSO. The absorbance at 490 nm was measured using a microplate reader (BioTek). All these analyses were performed at least three times.
# PARP2 = target: T4, PARP2 (Homo sapiens, UniProt Q9UGN5); test: PARP2 enzymatic inhibition assay (PARP2 Colorimetric Assay Kit); type: biochemical
# T4 construct: purchased BPS Bioscience 80581
# Method: as §2
# MCF-10A cells = test: MTT cell viability assay, MCF-10A; settings: Homo sapiens, 72 h, read-out: IC50 MCF-10A
# Method: as §3, §4
# MDA-MB-231 cells = test: MTT cell viability assay, MDA-MB-231; settings: Homo sapiens, MDA-MB-231, 72 h, read-out: IC50 MDA-MB-231
# Method: as §3, §4
# MDA-MB-468 cells = test: MTT cell viability assay, MDA-MB-468; settings: Homo sapiens, MDA-MB-468, 72 h, read-out: IC50 MDA-MB-468
# Method: as §3, §4
# MCF-7 cells = test: MTT cell viability assay, MCF-7; settings: Homo sapiens, MCF7, 72 h, read-out: IC50 MCF-7
# Method: as §3, §4
# RAD51 = test: Western blot of RAD51 expression in TNBC cells; type: cell-based, human; settings: alone, 24 h, TNBC cell lines
# Method: Western blot analysis was performed as previously described, and all western blot analyses were performed at least three times.
# Western blot analysis was performed as previously described. Briefly, whole cell or tissue lysates were prepared using ice-cold Nonidet P-40 buffer mixed with protease and phosphatase inhibitors (Roche, IN, USA) and centrifuged at 14,000 × g at 4 °C for 10 min. The protein lysates were fractionated by sodium dodecyl sulfate–polyacrylamide gel electrophoresis (SDS–PAGE) and transferred to polyvinylidene fluoride (PVDF) membranes (Merck, Darmstadt, Germany). Membranes were incubated in 1× TBST buffer containing 5% nonfat powdered milk at room temperature for 2 h. The indicated primary antibody was incubated with PVDF membranes, followed by a washing step using 1× TBST and a secondary antibody conjugated to HRP. Signal detection was carried out using the Western ECL Substrate kit (Bio-Rad, Hercules, CA, USA). […]
# [1] = tested on: MDA-MB-436, MDA-MB-231, and MDA-MB-468 cells; test: Colony formation assay; type: cell-based, human; settings: low dose
# Method: MDA-MB-231, MDA-MB-436 and MDA-MB-468 cells were seeded at a density of 2,000 cells in 6-well plates and cultured overnight. […] The cells were fixed with 4% paraformaldehyde (Merck) for 1 h at room temperature and stained with 0.1% crystal violet (Beyotime Biotechnology) for 30 min. Under an inverted phase contrast microscope (Leica Microsystems, Heidelberg, Germany), cell colonies were photographed at 5× magnification. All these analyses were performed at least three times.
# CCL5 and CXCL10 mRNA = test: RT-PCR of CCL5 and CXCL10 mRNA; type: cell-based, human; settings: MDA-MB-436 and MDA-MB-468 cells, 48 h
# Method: Total RNA was extracted using the Eastep Super Total RNA Extraction Kit (Promega, Charbonnières, France) according to the manufacturer’s protocol. Reverse transcription was performed using HyperScript RT SuperMix for qPCR (APExBIO, Houston, TX, USA). Gene expression was quantified with Hieff qPCR SYBR Green Master Mix (Yeason) on an ABI 7500 (Applied Biosystems, Grand Island, NY, USA). Data were then analyzed using the 2^-ΔΔCT method. The primers were designed and synthesized by Sangon Biotech, and the sequences are shown in Supporting Information Table S1.
# T4 sequence (Q9UGN5 whole entry): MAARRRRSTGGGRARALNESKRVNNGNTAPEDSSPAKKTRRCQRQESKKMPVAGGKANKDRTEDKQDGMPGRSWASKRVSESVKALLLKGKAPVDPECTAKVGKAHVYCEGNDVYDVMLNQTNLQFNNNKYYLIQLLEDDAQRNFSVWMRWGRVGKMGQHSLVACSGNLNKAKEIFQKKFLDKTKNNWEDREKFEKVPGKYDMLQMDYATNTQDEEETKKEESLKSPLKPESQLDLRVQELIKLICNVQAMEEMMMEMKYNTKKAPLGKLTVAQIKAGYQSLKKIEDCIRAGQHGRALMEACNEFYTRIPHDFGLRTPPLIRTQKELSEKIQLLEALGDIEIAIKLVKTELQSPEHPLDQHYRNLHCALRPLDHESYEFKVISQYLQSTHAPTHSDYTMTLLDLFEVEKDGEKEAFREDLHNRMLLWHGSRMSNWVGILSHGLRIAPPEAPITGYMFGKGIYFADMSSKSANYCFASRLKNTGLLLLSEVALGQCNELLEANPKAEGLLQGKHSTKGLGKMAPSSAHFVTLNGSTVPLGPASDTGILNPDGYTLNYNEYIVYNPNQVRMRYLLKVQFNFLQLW
# T1 sequence (Q13547 whole entry): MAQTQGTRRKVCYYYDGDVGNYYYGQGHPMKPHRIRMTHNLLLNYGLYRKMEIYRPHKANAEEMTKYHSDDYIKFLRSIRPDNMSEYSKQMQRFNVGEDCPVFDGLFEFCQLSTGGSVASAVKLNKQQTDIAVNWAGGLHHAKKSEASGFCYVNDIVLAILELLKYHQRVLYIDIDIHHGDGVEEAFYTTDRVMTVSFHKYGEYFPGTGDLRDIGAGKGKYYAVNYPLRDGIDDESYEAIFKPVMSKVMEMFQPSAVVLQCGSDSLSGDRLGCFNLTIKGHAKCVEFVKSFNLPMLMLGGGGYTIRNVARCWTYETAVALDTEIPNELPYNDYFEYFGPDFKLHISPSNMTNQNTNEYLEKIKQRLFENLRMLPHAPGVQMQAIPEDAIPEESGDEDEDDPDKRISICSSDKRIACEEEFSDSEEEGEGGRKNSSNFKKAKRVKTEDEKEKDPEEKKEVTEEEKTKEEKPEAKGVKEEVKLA
# T3 sequence (P09874 whole entry): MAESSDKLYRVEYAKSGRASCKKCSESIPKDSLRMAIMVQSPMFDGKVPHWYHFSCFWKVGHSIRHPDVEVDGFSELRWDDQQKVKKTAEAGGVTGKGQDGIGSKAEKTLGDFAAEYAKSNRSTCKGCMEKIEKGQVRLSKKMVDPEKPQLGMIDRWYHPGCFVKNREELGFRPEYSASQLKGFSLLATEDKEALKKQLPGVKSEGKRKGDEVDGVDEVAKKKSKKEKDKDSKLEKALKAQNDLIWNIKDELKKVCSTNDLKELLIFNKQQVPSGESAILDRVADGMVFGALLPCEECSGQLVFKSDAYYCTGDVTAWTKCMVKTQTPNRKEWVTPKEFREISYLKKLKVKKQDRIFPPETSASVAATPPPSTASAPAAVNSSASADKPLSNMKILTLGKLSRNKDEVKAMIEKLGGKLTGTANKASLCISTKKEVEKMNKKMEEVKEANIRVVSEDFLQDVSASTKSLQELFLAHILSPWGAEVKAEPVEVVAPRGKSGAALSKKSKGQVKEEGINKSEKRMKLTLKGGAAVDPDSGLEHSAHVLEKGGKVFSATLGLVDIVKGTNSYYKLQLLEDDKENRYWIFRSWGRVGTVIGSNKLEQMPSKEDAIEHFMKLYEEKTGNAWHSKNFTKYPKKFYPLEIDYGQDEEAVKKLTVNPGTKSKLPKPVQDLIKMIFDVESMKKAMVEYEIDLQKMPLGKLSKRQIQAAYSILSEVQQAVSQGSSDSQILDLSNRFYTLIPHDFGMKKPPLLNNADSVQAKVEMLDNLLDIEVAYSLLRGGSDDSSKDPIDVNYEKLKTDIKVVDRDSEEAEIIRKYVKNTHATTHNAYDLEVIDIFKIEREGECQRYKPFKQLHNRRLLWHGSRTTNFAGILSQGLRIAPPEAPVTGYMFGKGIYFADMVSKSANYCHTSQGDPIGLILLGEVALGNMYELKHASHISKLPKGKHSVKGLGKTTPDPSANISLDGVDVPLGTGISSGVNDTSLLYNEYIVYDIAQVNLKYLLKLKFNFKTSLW
SMILES,IC50 (recombinant HDAC1),IC50 (recombinant HDAC6),IC50 (PARP1),IC50 (MDA-MB-436 cells),IC50 (PARP2),IC50 (MCF-10A cells),IC50 (MDA-MB-231 cells),IC50 (MDA-MB-468 cells),IC50 (MCF-7 cells),RAD51 expression (RAD51),clonogenicity ([1]; BRCA1- and HRR-deficient MDA-MB-436 cells),clonogenicity ([1]; MDA-MB-231 and MDA-MB-468 cells),mRNA levels of CCL5 and CXCL10 (CCL5 and CXCL10 mRNA)
Nc1ccccc1NC(=O)CCN1CCN(C(=O)c2cc(Cc3n[nH]c(=O)c4ccccc34)ccc2F)CC1 [Compound B501],> 10000 nM,> 10000 nM,–,–,–,–,–,–,–,–,–,–,–
Nc1ccccc1NC(=O)CN1CCN(C(=O)c2cc(Cc3n[nH]c(=O)c4ccccc34)ccc2F)CC1 [Compound B401],> 10000 nM,> 10000 nM,–,–,–,–,–,–,–,–,–,–,–
Nc1cc(F)ccc1NC(=O)CN1CCN(C(=O)c2cc(Cc3n[nH]c(=O)c4ccccc34)ccc2F)CC1 [Compound B402],> 10000 nM,> 10000 nM,–,–,–,–,–,–,–,–,–,–,–
Nc1ccccc1NC(=O)CCCN1CCN(C(=O)c2cc(Cc3n[nH]c(=O)c4ccccc34)ccc2F)CC1 [Compound B601],> 10000 nM,> 10000 nM,–,–,–,–,–,–,–,–,–,–,–
Nc1cc(F)ccc1NC(=O)CCCN1CCN(C(=O)c2cc(Cc3n[nH]c(=O)c4ccccc34)ccc2F)CC1 [Compound B602],> 10000 nM,> 10000 nM,–,–,–,–,–,–,–,–,–,–,–
Nc1ccccc1NC(=O)Cc1ccc(CN2CCN(C(=O)c3cc(Cc4n[nH]c(=O)c5ccccc45)ccc3F)CC2)cc1 [Compound B201],60 nM,> 10000 nM,7.55 nM,970 ± 730 nM,13.8 nM,14000 ± 2450 nM,380 ± 80 nM,1350 ± 550 nM,5300 ± 1230 nM,–,–,–,–
"Nc1cc(F)ccc1NC(=O)c1ccc(CNC(=O)/C=C/c2cccnc2)cc1 [Chidamide, chidamide, reference compound]",–,–,–,4150 ± 920 nM,–,> 50000 nM,2340 ± 920 nM,750 ± 220 nM,4600 ± 780 nM,reduced the expression of RAD51,–,–,–
Nc1ccccc1NC(=O)/C=C/c1ccc(CN2CCN(C(=O)c3cc(Cc4n[nH]c(=O)c5ccccc45)ccc3F)CC2)cc1 [Compound B101],120 nM,> 10000 nM,13.2 nM,530 ± 80 nM,4.08 nM,1450 ± 90 nM,410 ± 10 nM,300 ± 50 nM,3620 ± 1210 nM,–,–,–,–
"O=C(c1cc(Cc2n[nH]c(=O)c3ccccc23)ccc1F)N1CCN(C(=O)C2CC2)CC1 [Olaparib, olaparib, reference compound]",–,–,–,8080 ± 2020 nM,–,28000 ± 3480 nM,3240 ± 2200 nM,14500 ± 2440 nM,> 25000 nM,–,reduced the clonogenicity,this effect was not observed,rise in the mRNA levels of CCL5 and CXCL10
Nc1cc(F)ccc1NC(=O)Cc1ccc(CN2CCN(C(=O)c3cc(Cc4n[nH]c(=O)c5ccccc45)ccc3F)CC2)cc1 [Compound B202],160 nM,> 10000 nM,10.3 nM,650 ± 140 nM,34.2 nM,9830 ± 750 nM,460 ± 120 nM,560 ± 100 nM,15600 ± 3520 nM,–,–,–,–
Nc1cc(F)ccc1NC(=O)CCN1CCN(C(=O)c2cc(Cc3n[nH]c(=O)c4ccccc34)ccc2F)CC1 [Compound B502],> 10000 nM,> 10000 nM,–,–,–,–,–,–,–,–,–,–,–
Nc1ccccc1NC(=O)CCc1ccc(CN2CCN(C(=O)c3cc(Cc4n[nH]c(=O)c5ccccc45)ccc3F)CC2)cc1 [Compound B301],> 10000 nM,> 10000 nM,11.4 nM,1730 ± 820 nM,70.4 nM,30000 ± 9800 nM,1960 ± 630 nM,1750 ± 370 nM,3530 ± 1110 nM,–,–,–,–
